The target of one experiment is Nea1. The experiment in a line: receptor affinity. Type of experiment: binding. The note with it: high affinity.
The target of the next experiment is T1, Nea2c (Homo sapiens, UniProt P18825).
T1 sequence (P18825 1-462): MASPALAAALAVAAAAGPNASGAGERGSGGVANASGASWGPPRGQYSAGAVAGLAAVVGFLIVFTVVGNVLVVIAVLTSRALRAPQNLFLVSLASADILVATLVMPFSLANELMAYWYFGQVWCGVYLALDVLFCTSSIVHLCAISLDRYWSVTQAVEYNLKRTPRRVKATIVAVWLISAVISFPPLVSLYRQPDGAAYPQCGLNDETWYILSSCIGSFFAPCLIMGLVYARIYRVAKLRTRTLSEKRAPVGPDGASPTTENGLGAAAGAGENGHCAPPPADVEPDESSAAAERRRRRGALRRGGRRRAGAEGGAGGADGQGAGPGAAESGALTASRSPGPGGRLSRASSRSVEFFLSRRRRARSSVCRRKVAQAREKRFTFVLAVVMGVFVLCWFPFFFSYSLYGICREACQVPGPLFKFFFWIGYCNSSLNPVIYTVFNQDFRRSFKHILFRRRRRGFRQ
The experiment in a line: receptor affinity. Particulars: high affinity. Type of experiment: binding.

The next experiment deals with D3 (Homo sapiens, UniProt P35462). The experiment in a line: receptor affinity. Type of experiment: binding. The note with it: high affinity.
A further experiment addresses T2, 5-HT1A (Homo sapiens, UniProt P08908).
T2 sequence (P08908 1-422): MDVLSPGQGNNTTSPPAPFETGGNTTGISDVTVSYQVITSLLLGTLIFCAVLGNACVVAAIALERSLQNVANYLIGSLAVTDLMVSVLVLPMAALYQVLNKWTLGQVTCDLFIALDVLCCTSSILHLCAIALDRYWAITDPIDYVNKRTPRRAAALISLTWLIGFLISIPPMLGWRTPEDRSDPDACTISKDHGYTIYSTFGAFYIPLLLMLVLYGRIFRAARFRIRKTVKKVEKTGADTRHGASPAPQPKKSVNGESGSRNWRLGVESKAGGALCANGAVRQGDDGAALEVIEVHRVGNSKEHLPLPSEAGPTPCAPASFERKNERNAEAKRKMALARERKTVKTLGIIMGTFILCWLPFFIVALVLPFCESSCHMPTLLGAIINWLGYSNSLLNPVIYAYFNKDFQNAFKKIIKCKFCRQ
The experiment in a line: receptor affinity. Type of experiment: binding. The note with it: listed both as high and as moderate affinity.

The target in experiment [1] is other dopaminergic, adrenergic, and serotoninergic receptors. The experiment in a line: receptor affinity. It counts as binding. Particulars: moderate affinity.
Experiment [2] deals with selected dopaminergic, serotoninergic, and adrenergic receptors. The experiment in a line: functional action at receptors. It counts as biochemical.

“And” between values parts separate entries of the source, which are not always exact repeats. Equal values may be shown once. Where only a bound is given, the exact number is not on record here.

In general, Kd refers to the concentration at which binding is half-saturated.

Chain of D3 (P35462 whole entry): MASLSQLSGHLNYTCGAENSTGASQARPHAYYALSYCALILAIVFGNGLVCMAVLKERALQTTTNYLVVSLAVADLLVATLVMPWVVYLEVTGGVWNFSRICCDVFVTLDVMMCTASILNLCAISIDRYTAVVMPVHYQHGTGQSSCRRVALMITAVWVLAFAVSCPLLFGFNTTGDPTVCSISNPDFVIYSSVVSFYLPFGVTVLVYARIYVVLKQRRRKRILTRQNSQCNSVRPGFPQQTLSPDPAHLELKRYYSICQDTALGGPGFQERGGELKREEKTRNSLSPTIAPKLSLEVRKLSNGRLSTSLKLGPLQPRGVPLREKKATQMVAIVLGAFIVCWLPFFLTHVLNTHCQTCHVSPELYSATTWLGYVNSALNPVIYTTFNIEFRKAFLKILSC

As for `COc1cc(C(C)=O)ccc1OCCCN1CCC(c2noc3cc(F)ccc23)CC1` [Iloperidone, 1-[4-[3-[4-(6-flouro-1,2-benzisoxazol-3-yl)-1-piperidinyl]propoxy]-3-methoxyphenyl]ethanone], the Kd at Nea1 is less than 10 nM; at Nea2c it was less than 10 nM; at D3, less than 10 nM; on 5-HT1A, < 10 nM and 10 to 100 nM; in experiment [1], 10 to 100 nM. In experiment [2], the “mode of action at receptors” value is reported as “antagonist”.

Source of the values: US20090306137A1, “TREATMENT FOR DEPRESSIVE DISORDERS” (priority 2006, published 2009).
